Results on three compounds are retold here after publication PMC9989937, “In-vitro antioxidant, lipoxygenase inhibitory, and in-vivo muscle relaxant potential of the extract and constituent isolated from Diospyros kaki (Japanese Persimmon)” (Heliyon, 2023).

Structures are written as SMILES.

Experiment [1] has as its target T1, lipoxygenase (EC 1.13.11.12) Type 1 (soybean) (Glycine max, UniProt P08170).
T1 construct: gene LOX1.1
T1 sequence (P08170 1-839): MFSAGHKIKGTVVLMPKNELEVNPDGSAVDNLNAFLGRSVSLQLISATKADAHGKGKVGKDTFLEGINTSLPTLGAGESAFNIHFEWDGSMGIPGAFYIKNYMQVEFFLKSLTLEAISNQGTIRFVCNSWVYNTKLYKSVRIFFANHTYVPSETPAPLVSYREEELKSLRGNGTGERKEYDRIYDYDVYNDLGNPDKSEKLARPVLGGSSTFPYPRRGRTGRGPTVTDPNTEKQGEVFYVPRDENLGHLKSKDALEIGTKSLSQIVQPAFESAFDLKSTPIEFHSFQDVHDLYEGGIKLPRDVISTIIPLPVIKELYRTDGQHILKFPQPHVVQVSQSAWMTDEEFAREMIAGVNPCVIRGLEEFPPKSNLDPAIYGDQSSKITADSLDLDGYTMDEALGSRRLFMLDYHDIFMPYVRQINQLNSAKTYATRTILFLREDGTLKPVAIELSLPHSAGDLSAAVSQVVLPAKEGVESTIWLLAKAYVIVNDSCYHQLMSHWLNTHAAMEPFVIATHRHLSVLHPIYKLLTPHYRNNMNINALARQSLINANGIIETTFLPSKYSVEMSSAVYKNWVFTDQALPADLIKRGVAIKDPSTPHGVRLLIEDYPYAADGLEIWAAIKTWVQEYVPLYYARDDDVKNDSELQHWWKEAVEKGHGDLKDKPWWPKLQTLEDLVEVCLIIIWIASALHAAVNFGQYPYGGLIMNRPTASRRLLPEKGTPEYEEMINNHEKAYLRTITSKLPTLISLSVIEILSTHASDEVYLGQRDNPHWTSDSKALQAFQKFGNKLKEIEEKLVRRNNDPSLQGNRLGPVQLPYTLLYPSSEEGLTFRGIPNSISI
The experiment in a line: spectrophotometric lipoxygenase inhibition assay with linoleic acid substrate (positive control). The class given is biochemical.

The target in experiment [2] is T1, lipoxygenase (EC 1.13.11.12) Type 1 (soybean). The experiment in a line: spectrophotometric lipoxygenase inhibition assay with linoleic acid substrate. The class given is biochemical.

The term IC50 denotes the concentration needed to halve the response being measured. In the case of `O=c1cc(-c2ccccc2)oc2cc(O)c(O)c(O)c12` [Baicalein], the IC50 in experiment [1] came out at 40.9 µM. `COc1c(C)c(-c2cc(O)c3c(c2O)C(=O)C(C)=CC3=O)c(OC)c2c1C(=O)C=CC2=O` [compound 1, 1′,4′-dihydroxy-1,4-dimethoxy-3,7′-dimethyl-[2,2′-binaphthalene]-5,5′,8,8′-tetraone] registered an IC50 in experiment [2] of 37 µM. As to `NC(=O)N1C(=O)/C(=C(\O)c2cccs2)c2cc(Cl)ccc21` [Tenidap], the IC50 in experiment [1] (read-out: IC50) was determined as 23 µM.
